Reference: US20240116845A1, “INDENE COMPOUNDS, PHARMACEUTICAL COMPOSITIONS THEREOF, AND THEIR THERAPEUTIC APPLICATIONS” (NucMito Pharmaceuticals Co., Ltd., priority 2021, published 2024)

Legend:
Assay type in all cases: cell-based
SW480 (colon cancer) = assay: Antiproliferative activity, CCK-8 cell viability; conditions: Homo sapiens, 72 h, read-out: Inhibition of Cancerous Cells, SW480; for inhibition at 3.3 µM: compound concentration of 3.3 μM; for inhibition at 10 µM: compound concentration of 10 μM; for inhibition at 30 µM: compound concentration of 30 μM
How it was run: (§1)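 Cells in DMEM with 10% FBS were treated with compound at 3.3, 10 or 30 μM for 72 h at 37°C. Viability was read by CCK-8 absorbance at 450 nm and expressed relative to DMSO-treated cells. Growth inhibition was binned as ≥50%, 30–50% or <30%.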

HeLa (cervical cancer) = assay: Antiproliferative activity, CCK-8 cell viability; conditions: Homo sapiens, 72 h, read-out: Inhibition of Cancerous Cells, HELA; for inhibition at 3.3 µM: compound concentration of 3.3 μM; for inhibition at 10 µM: compound concentration of 10 μM; for inhibition at 30 µM: compound concentration of 30 μM
[1] = test system: A549 (lung adenocarcinoma); assay: Antiproliferative activity, CCK-8 cell viability; conditions: Homo sapiens, 72 h, read-out: Inhibition of Cancerous Cells, A549; for inhibition at 3.3 µM: compound concentration of 3.3 μM; for inhibition at 10 µM: compound concentration of 10 μM; for inhibition at 30 µM: compound concentration of 30 μM
HepG2 (liver cancer) = assay: Antiproliferative activity, CCK-8 cell viability; conditions: Homo sapiens, 72 h, read-out: Inhibition of Cancerous Cells, HepG2; for inhibition at 3.3 µM: compound concentration of 3.3 μM; for inhibition at 10 µM: compound concentration of 10 μM; for inhibition at 30 µM: compound concentration of 30 μM
How it was run: as §1

[2] = test system: B16F10 (malignant melanoma); assay: Antiproliferative activity, CCK-8 cell viability; conditions: Mus musculus, B16-F10, 72 h, read-out: Inhibition of Cancerous Cells, B16F10; for inhibition at 3.3 µM: compound concentration of 3.3 μM; for inhibition at 10 µM: compound concentration of 10 μM; for inhibition at 30 µM: compound concentration of 30 μM
How it was run: as §1

[3] = test system: A431 (epidermoid carcinoma); assay: Antiproliferative activity, CCK-8 cell viability; conditions: Homo sapiens, A-431, 72 h, read-out: Inhibition of Cancerous Cells, A431; for inhibition at 3.3 µM: compound concentration of 3.3 μM; for inhibition at 10 µM: compound concentration of 10 μM; for inhibition at 30 µM: compound concentration of 30 μM
How it was run: as §1

[4] = test system: MDA-MB-231 (breast cancer); assay: Antiproliferative activity, CCK-8 cell viability; conditions: Homo sapiens, 72 h, read-out: Inhibition of Cancerous Cells, MDA-MB-231; for inhibition at 3.3 µM: compound concentration of 3.3 μM; for inhibition at 10 µM: compound concentration of 10 μM; for inhibition at 30 µM: compound concentration of 30 μM
How it was run: as §1

[5] = test system: alpha-smooth muscle actin (α-SMA); assay: Inhibition of TGF-β induced expression of alpha-smooth muscle actin in CFSC cells (western blot); conditions: compound at 10 μM, TGF-β (10 ng/mL), 24 hours
How it was run: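 Rat CCl4-treated hepatic stellate (CFSC) cells in serum-free DMEM were given compound at 10 μM plus TGF-β 10 ng/mL for 24 h at 37 °C. α-SMA measured by western blot with β-actin, bands quantified densitometrically. Percent inhibition is the decrease in band intensity versus TGF-β alone.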

CC1=C(CC(=O)O)c2cc(F)ccc2/C1=C\c1cccc(COc2ccc(F)c(F)c2)c1 [Compound A20, 2-[(1Z)-1-({3-[(3,4-Difluorophenoxy)methyl]phenyl}methylidene)-5-fluoro-2-methyl-1H-inden-3-yl]acetic acid]
< 30%: inhibition at 3.3 µM (SW480 (colon cancer)) | inhibition at 3.3 µM [1]
≥ 50%: inhibition at 30 µM (SW480 (colon cancer)) | inhibition at 30 µM (HeLa (cervical cancer)) | inhibition at 30 µM [1] | inhibition at 3.3 µM (HepG2 (liver cancer)) | inhibition at 10 µM (HepG2 (liver cancer)) | inhibition at 30 µM (HepG2 (liver cancer)) | inhibition at 30 µM [2] | inhibition at 3.3 µM [3] | inhibition at 10 µM [3] | inhibition at 30 µM [3] | inhibition at 3.3 µM [4] | inhibition at 10 µM [4] | inhibition at 30 µM [4]
30 to 50%: inhibition at 10 µM (SW480 (colon cancer)) | inhibition at 3.3 µM (HeLa (cervical cancer)) | inhibition at 10 µM (HeLa (cervical cancer)) | inhibition at 10 µM [1] | inhibition at 3.3 µM [2] | inhibition at 10 µM [2]
≥ 80%: inhibition at 10 µM [5]

CC1=C(CC(=O)O)c2cc(F)ccc2/C1=C\c1cccc(COc2ccc(F)cc2)c1 [Compound A6, 2-[(1Z)-5-Fluoro-1-({3-[(4-fluorophenoxy)methyl]phenyl}methylidene)-2-methyl-1H-inden-3-yl]acetic acid]
≥ 50%: inhibition at 10 µM (SW480 (colon cancer)) | inhibition at 30 µM (SW480 (colon cancer)) | inhibition at 3.3 µM (HeLa (cervical cancer)) | inhibition at 10 µM (HeLa (cervical cancer)) | inhibition at 30 µM (HeLa (cervical cancer)) | inhibition at 30 µM [1] | inhibition at 3.3 µM (HepG2 (liver cancer)) | inhibition at 10 µM (HepG2 (liver cancer)) | inhibition at 30 µM (HepG2 (liver cancer)) | inhibition at 30 µM [2] | inhibition at 10 µM [3] | inhibition at 30 µM [3] | inhibition at 3.3 µM [4] | inhibition at 10 µM [4] | inhibition at 30 µM [4]
30 to 50%: inhibition at 10 µM [1] | inhibition at 10 µM [2] | inhibition at 3.3 µM [3]
< 30%: inhibition at 3.3 µM (SW480 (colon cancer)) | inhibition at 3.3 µM [1] | inhibition at 3.3 µM [2]
≥ 80%: inhibition at 10 µM [5]

CC1=C(CC(=O)O)c2cc(F)cc(F)c2/C1=C/c1cccc(Oc2ccccc2)c1 [Compound E7, 2-[(1E)-5,7-Difluoro-1-(3-(phenoxy)benzylidene)-2-methyl-1H-inden-3-yl]-acetic acid]
< 30%: inhibition at 3.3 µM (SW480 (colon cancer)) | inhibition at 3.3 µM [1] | inhibition at 10 µM [1]
30 to 50%: inhibition at 3.3 µM (HeLa (cervical cancer)) | inhibition at 3.3 µM [3]
≥ 80%: inhibition at 10 µM [5]
≥ 50%: inhibition at 10 µM (SW480 (colon cancer)) | inhibition at 30 µM (SW480 (colon cancer)) | inhibition at 10 µM (HeLa (cervical cancer)) | inhibition at 30 µM (HeLa (cervical cancer)) | inhibition at 30 µM [1] | inhibition at 3.3 µM (HepG2 (liver cancer)) | inhibition at 10 µM (HepG2 (liver cancer)) | inhibition at 30 µM (HepG2 (liver cancer)) | inhibition at 3.3 µM [2] | inhibition at 10 µM [2] | inhibition at 30 µM [2] | inhibition at 10 µM [3] | inhibition at 30 µM [3] | inhibition at 3.3 µM [4] | inhibition at 10 µM [4] | inhibition at 30 µM [4]

CC1=C(CC(=O)O)c2cc(F)ccc2/C1=C\c1cccc(CN(C)c2ccccc2)c1 [Compound A16, 2-[(1Z)-5-Fluoro-2-methyl-1-[(3-{[methyl(phenyl)amino]methyl}phenyl)-methylidene]-1H-inden-3-yl]acetic acid]
≥ 50%: inhibition at 3.3 µM (SW480 (colon cancer)) | inhibition at 10 µM (SW480 (colon cancer)) | inhibition at 30 µM (SW480 (colon cancer)) | inhibition at 10 µM (HeLa (cervical cancer)) | inhibition at 30 µM (HeLa (cervical cancer)) | inhibition at 10 µM [1] | inhibition at 30 µM [1] | inhibition at 30 µM (HepG2 (liver cancer)) | inhibition at 30 µM [2] | inhibition at 10 µM [3] | inhibition at 30 µM [3] | inhibition at 10 µM [4] | inhibition at 30 µM [4]
< 30%: inhibition at 3.3 µM (HepG2 (liver cancer)) | inhibition at 3.3 µM [2] | inhibition at 10 µM [2] | inhibition at 3.3 µM [3]
≥ 80%: inhibition at 10 µM [5]
30 to 50%: inhibition at 3.3 µM (HeLa (cervical cancer)) | inhibition at 3.3 µM [1] | inhibition at 10 µM (HepG2 (liver cancer)) | inhibition at 3.3 µM [4]

CC1=C(CC(=O)O)c2cc(F)ccc2/C1=C\c1ccc(Cc2ccc(F)cc2)cc1 [Compound A3, 2-[(1Z)-5-Fluoro-2-methyl-1-({4-[4-fluorobenzyl]phenyl}methylidene)-1H-inden-3-yl]acetic acid]
≥ 80%: inhibition at 10 µM [5]
≥ 50%: inhibition at 3.3 µM (SW480 (colon cancer)) | inhibition at 10 µM (SW480 (colon cancer)) | inhibition at 30 µM (SW480 (colon cancer)) | inhibition at 30 µM (HeLa (cervical cancer)) | inhibition at 10 µM [1] | inhibition at 30 µM [1] | inhibition at 3.3 µM (HepG2 (liver cancer)) | inhibition at 10 µM (HepG2 (liver cancer)) | inhibition at 30 µM (HepG2 (liver cancer)) | inhibition at 30 µM [2] | inhibition at 10 µM [3] | inhibition at 30 µM [3] | inhibition at 3.3 µM [4] | inhibition at 10 µM [4] | inhibition at 30 µM [4]
< 30%: inhibition at 3.3 µM (HeLa (cervical cancer)) | inhibition at 3.3 µM [1] | inhibition at 3.3 µM [2] | inhibition at 3.3 µM [3]
30 to 50%: inhibition at 10 µM (HeLa (cervical cancer)) | inhibition at 10 µM [2]

O=C(O)CC1=C(Cc2ccccc2)/C(=C/c2ccc(Oc3ccc(F)cc3)cc2)c2ccc(F)cc21 [Compound D9, 2-[(1Z)-5-Fluoro-2-benzyl-1-({4-[4-fluorophenoxy]phenyl}methylidene)-1H-inden-3-yl]acetic acid]
≥ 50%: inhibition at 10 µM (SW480 (colon cancer)) | inhibition at 30 µM (SW480 (colon cancer)) | inhibition at 30 µM (HeLa (cervical cancer)) | inhibition at 10 µM [1] | inhibition at 30 µM [1] | inhibition at 30 µM (HepG2 (liver cancer)) | inhibition at 10 µM [2] | inhibition at 30 µM [2] | inhibition at 10 µM [3] | inhibition at 30 µM [3] | inhibition at 3.3 µM [4] | inhibition at 10 µM [4] | inhibition at 30 µM [4]
≥ 80%: inhibition at 10 µM [5]
30 to 50%: inhibition at 3.3 µM (SW480 (colon cancer)) | inhibition at 3.3 µM (HeLa (cervical cancer)) | inhibition at 10 µM (HeLa (cervical cancer)) | inhibition at 3.3 µM [1] | inhibition at 3.3 µM [3]
< 30%: inhibition at 3.3 µM (HepG2 (liver cancer)) | inhibition at 10 µM (HepG2 (liver cancer)) | inhibition at 3.3 µM [2]

CC1=C(CC(=O)N(C)O)c2cc(F)ccc2/C1=C\c1ccc(Oc2ccc(F)cc2)cc1 [Compound B2, 2-[(1Z)-5-Fluoro-1-{[4-(4-fluorophenoxy)phenyl]methylidene}-2-methyl-1H-inden-3-yl]-N-hydroxy-N-methylacetamide]
< 30%: inhibition at 3.3 µM (HepG2 (liver cancer))
≥ 80%: inhibition at 10 µM [5]
30 to 50%: inhibition at 3.3 µM (HeLa (cervical cancer)) | inhibition at 10 µM (HeLa (cervical cancer)) | inhibition at 10 µM (HepG2 (liver cancer))
≥ 50%: inhibition at 3.3 µM (SW480 (colon cancer)) | inhibition at 10 µM (SW480 (colon cancer)) | inhibition at 30 µM (SW480 (colon cancer)) | inhibition at 30 µM (HeLa (cervical cancer)) | inhibition at 3.3 µM [1] | inhibition at 10 µM [1] | inhibition at 30 µM [1] | inhibition at 30 µM (HepG2 (liver cancer)) | inhibition at 3.3 µM [2] | inhibition at 10 µM [2] | inhibition at 30 µM [2] | inhibition at 3.3 µM [3] | inhibition at 10 µM [3] | inhibition at 30 µM [3] | inhibition at 3.3 µM [4] | inhibition at 10 µM [4] | inhibition at 30 µM [4]

CC1=C(CC(=O)O)c2cc(F)ccc2/C1=C\c1cccc(OCc2ccccc2)c1 [Compound A4, 2-[(1Z)-5-Fluoro-1-(3-(benzyloxy)benzylidene)-2-methyl-1H-inden-3-yl]-acetic acid]
50 to 80%: inhibition at 10 µM [5]
≥ 50%: inhibition at 10 µM (SW480 (colon cancer)) | inhibition at 30 µM (SW480 (colon cancer)) | inhibition at 10 µM (HeLa (cervical cancer)) | inhibition at 30 µM (HeLa (cervical cancer)) | inhibition at 10 µM [1] | inhibition at 30 µM [1] | inhibition at 30 µM (HepG2 (liver cancer)) | inhibition at 3.3 µM [2] | inhibition at 10 µM [2] | inhibition at 30 µM [2] | inhibition at 10 µM [3] | inhibition at 30 µM [3] | inhibition at 3.3 µM [4] | inhibition at 10 µM [4] | inhibition at 30 µM [4]
30 to 50%: inhibition at 3.3 µM (SW480 (colon cancer)) | inhibition at 3.3 µM (HeLa (cervical cancer)) | inhibition at 3.3 µM [1] | inhibition at 3.3 µM [3]
< 30%: inhibition at 3.3 µM (HepG2 (liver cancer)) | inhibition at 10 µM (HepG2 (liver cancer))
